The results in this text go back to publication PMC4655872, “A quantitative assay to monitor HSV-1 ICP0 ubiquitin ligase activity in vitro” (Methods (San Diego, Calif.), 2015).

The test deals with T1, GST-ICP0.241.
T1 construct: gene RL2; purified from bacterial extracts; assayed with His-tagged human E1 (UBA1) and UBE2D1
Put plainly: near-IR western blot of ICP0 auto-ubiquitination with methylated-ubiquitin, reconstituted E1/E2/E3. As to conditions: non-specific divalent cation chelator, not a specific ligand; E1 and UBE2D1 present, 1 mM MgCl2, 5 mM ATP, pH 7.5, 37 °C, 5 min preincubation, 60 min reaction. It is filed as biochemical, Human alphaherpesvirus 1.

Compound `O=C(O)CN(CCN(CC(=O)O)CC(=O)O)CC(=O)O` [EDTA] displayed an IC50 of 958 µM.
